Source: ChEMBL document CHEMBL1201862, “PubChem BioAssay data set” (2004)
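Grown in 96-well plates, cells were treated for 48 hours with each compound at five concentrations. Insufficient inhibition: endpoint recorded as highest concentration tested. GI50: concentration for 50% inhibition of growth.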 Calls of active or inactive are those of the source. Rule as the data show it: active = GI50 up to about 1.1 µM and inactive = higher.

How the values were obtained:
Experiment in all cases: NCI anticancer screen, dose series, 48 h
SF-268 = system: SF-268
HL-60 = system: HL-60
SK-MEL-2 = system: SK-MEL-2
CAKI-1 = system: CAKI-1
T47D = system: T47D
LOX IMVI = system: LOX IMVI
NCI/ADR-RES = system: NCI/ADR-RES
SK-MEL-28 = system: SK-MEL-28
MDA-MB-435 = system: MDA-MB-435
PC-3 = system: PC-3
OVCAR-8 = system: OVCAR-8
SN12C = system: SN12C
TK-10 = system: TK-10
HOP-92 = system: HOP-92
EKVX = system: EKVX
K562 = system: K562
HOP-62 = system: HOP-62
DU-145 = system: DU-145
OVCAR-3 = system: OVCAR-3
786-0 = system: 786-0
UACC-62 = system: UACC-62
MDA-N = system: MDA-N
HCC 2998 = system: HCC 2998
Hs-578T = system: Hs-578T
MDA-MB-231 = system: MDA-MB-231
NCI-H460 = system: NCI-H460
OVCAR-4 = system: OVCAR-4
RXF 393 = system: RXF 393
U-251 = system: U-251
SNB-19 = system: SNB-19
ACHN = system: ACHN
MCF7 = system: MCF7
A549 = system: A549
NCI-H23 = system: NCI-H23
HCT-15 = system: HCT-15
SF-539 = system: SF-539
OVCAR-5 = system: OVCAR-5
HCT-116 = system: HCT-116
M14 = system: M14
SK-MEL-5 = system: SK-MEL-5
HT-29 = system: HT-29
MOLT-4 = system: MOLT-4
NCI-H522 = system: NCI-H522
KM12 = system: KM12
SF-295 = system: SF-295
SW-620 = system: SW-620
UO-31 = system: UO-31
SK-OV-3 = system: SK-OV-3
NCI-H226 = system: NCI-H226
IGROV-1 = system: IGROV-1
BT-549 = system: BT-549
COLO 205 = system: COLO 205
Malme-3M = system: Malme-3M
RPMI-8226 = system: RPMI-8226
SNB-75 = system: SNB-75
A498 = system: A498
SR = system: SR
CCRF-CEM = system: CCRF-CEM
UACC-257 = system: UACC-257

Measured: GI50

N=C(N)c1ccc(OCCCCCOc2ccc(C(=N)N)cc2)cc1 [PENTAMIDINE]
inactive: SF-268 17.2 µM | HL-60 19.3 µM | SK-MEL-2 9.06 µM | CAKI-1 57 µM | T47D 7.76 µM | LOX IMVI 16.1 µM | NCI/ADR-RES 71.6 µM | SK-MEL-28 14.7 µM | MDA-MB-435 16.6 µM | PC-3 18.5 µM | OVCAR-8 13.7 µM | SN12C 6.55 µM | TK-10 18.9 µM | HOP-92 28.5 µM | EKVX 19.1 µM | K562 3.45 µM | HOP-62 14.9 µM | DU-145 13.2 µM | OVCAR-3 14.3 µM | 786-0 13.7 µM | UACC-62 12.2 µM | MDA-N 15.6 µM | HCC 2998 12.2 µM | Hs-578T 14.9 µM | MDA-MB-231 16.7 µM | NCI-H460 2.98 µM | OVCAR-4 10.9 µM | RXF 393 16.7 µM | U-251 8.26 µM | SNB-19 10.7 µM | ACHN 23.6 µM | MCF7 9.55 µM | A549 11 µM | NCI-H23 10.4 µM | SF-539 12.6 µM | OVCAR-5 21 µM | HCT-116 22.4 µM | M14 15.5 µM
24.8 µM: HCT-15

ON(CCc1ccncc1)Cc1ccccc1
> 100 µM: HCT-15
inactive: SF-268 > 100 µM | SK-MEL-5 > 100 µM | HT-29 > 100 µM | MOLT-4 > 100 µM | NCI-H522 > 100 µM | CAKI-1 > 100 µM | T47D > 100 µM | LOX IMVI > 100 µM | NCI/ADR-RES > 100 µM | KM12 > 100 µM | SF-295 > 100 µM | SK-MEL-28 > 100 µM | SW-620 > 100 µM | UO-31 > 100 µM | SK-OV-3 > 100 µM | MDA-MB-435 > 100 µM | OVCAR-8 > 100 µM | SN12C > 100 µM | HOP-92 > 100 µM | EKVX > 100 µM | NCI-H226 > 100 µM | K562 > 100 µM | HOP-62 > 100 µM | IGROV-1 > 100 µM | BT-549 > 100 µM | COLO 205 > 100 µM | Malme-3M > 100 µM | DU-145 > 100 µM | OVCAR-3 > 100 µM | 786-0 > 100 µM | UACC-62 > 100 µM | RPMI-8226 > 100 µM | Hs-578T > 100 µM | OVCAR-4 > 100 µM | RXF 393 > 100 µM | SNB-19 > 100 µM | ACHN > 100 µM | MCF7 > 100 µM | SNB-75 > 100 µM | A549 > 100 µM | NCI-H23 > 100 µM | SF-539 > 100 µM | A498 > 100 µM | OVCAR-5 > 100 µM | HCT-116 > 100 µM | M14 > 100 µM | SR > 100 µM

Cc1cc(N(C)c2ccccc2)nc(N(C)c2ccccc2)n1
inactive: SF-268 54 µM | SK-MEL-5 27.1 µM | HT-29 17.9 µM | MOLT-4 33.7 µM | NCI-H522 36.9 µM | HL-60 37.8 µM | SK-MEL-2 15.8 µM | CAKI-1 > 100 µM | LOX IMVI 13.3 µM | NCI/ADR-RES 58.3 µM | KM12 18.1 µM | SF-295 20.2 µM | SK-MEL-28 35.5 µM | SW-620 43.1 µM | UO-31 80.2 µM | SK-OV-3 > 100 µM | MDA-MB-435 42.9 µM | PC-3 43.3 µM | OVCAR-8 33 µM | SN12C 46.8 µM | TK-10 55.7 µM | EKVX 36.1 µM | NCI-H226 34.6 µM | K562 49.9 µM | HOP-62 31.2 µM | IGROV-1 39 µM | COLO 205 23.9 µM | Malme-3M 26.9 µM | DU-145 92.3 µM | OVCAR-3 33 µM | 786-0 41.3 µM | UACC-62 28.6 µM | MDA-N 52.4 µM | RPMI-8226 28.8 µM | HCC 2998 36.9 µM | Hs-578T 26.8 µM | MDA-MB-231 33.2 µM | NCI-H460 49.9 µM | OVCAR-4 > 100 µM | RXF 393 22 µM | U-251 30.7 µM | SNB-19 88.1 µM | CCRF-CEM 23.6 µM | ACHN 28.4 µM | MCF7 33.7 µM | SNB-75 41.1 µM | A549 27.5 µM | NCI-H23 36.7 µM | SF-539 27.1 µM | A498 64.9 µM | OVCAR-5 21.2 µM | HCT-116 19.6 µM | M14 41.3 µM | SR 27.7 µM | UACC-257 25.4 µM
32.1 µM: HCT-15
